Source: ChEMBL document CHEMBL1201862, “PubChem BioAssay data set” (2004)
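All cell lines were grown in 96-well plates and treated with compound for 48 hours. GI50: concentration for 50% inhibition of growth.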 Activity calls are given as the source filed them. Cut-off read from the data, not from the text of the source: active = GI50 up to about 1.1 µM and inactive = higher.

Legend:
Experiment in all cases: DTP human tumour cell line panel, 48 h
[1] = system: SF-268
[2] = system: SNB-19
[3] = system: HL-60
[4] = system: EKVX
[5] = system: SK-MEL-2
[6] = system: MOLT-4
[7] = system: SK-OV-3
[8] = system: SK-MEL-5
[9] = system: TK-10
[10] = system: KM12
[11] = system: OVCAR-8
[12] = system: MDA-MB-231
[13] = system: ACHN
[14] = system: SK-MEL-28
[15] = system: HCT-116
[16] = system: UACC-257
[17] = system: SN12C
[18] = system: K562
[19] = system: NCI-H226
[20] = system: NCI/ADR-RES
[21] = system: IGROV-1
[22] = system: PC-3
[23] = system: SF-295
[24] = system: NCI-H23
[25] = system: 786-0
[26] = system: T47D
[27] = system: MDA-MB-435
[28] = system: SNB-75
[29] = system: UO-31
[30] = system: HT-29
[31] = system: MDA-N
[32] = system: LOX IMVI
[33] = system: SW-620
[34] = system: CAKI-1
[35] = system: HOP-92
[36] = system: DU-145
[37] = system: CCRF-CEM
[38] = system: Malme-3M
[39] = system: M14
[40] = system: OVCAR-4
[41] = system: NCI-H522
[42] = system: HOP-62
[43] = system: BT-549
[44] = system: A549
[45] = system: COLO 205
[46] = system: RPMI-8226
[47] = system: SF-539
[48] = system: NCI-H460
[49] = system: HCT-15
[50] = system: SR
[51] = system: U-251
[52] = system: OVCAR-3
[53] = system: OVCAR-5
[54] = system: RXF 393
[55] = system: Hs-578T

`COc1ccc(-c2cc(-c3cc(F)c(Cl)cc3Cl)on2)cc1OC` was tested, and the GI50 [1] was 34 µM (inactive), the GI50 [2] was > 100 µM (inactive) and the GI50 [3] was 4.48 µM (inactive). For the same molecule, the GI50 [4] was 75.5 µM (inactive), the GI50 [5] was 17.1 µM (inactive) and the GI50 [6] was 5.82 µM (inactive). The GI50 [7] was 44.6 µM (inactive), the GI50 [8] was 9.51 µM (inactive) and the GI50 [9] was 49.5 µM (inactive). For the same molecule, the GI50 [10] was 14.3 µM (inactive), the GI50 [11] was 72.3 µM (inactive) and the GI50 [12] was 20.1 µM (inactive). For the same molecule, the GI50 [13] was 37.2 µM (inactive), the GI50 [14] was 28.3 µM (inactive) and the GI50 [15] was 29.2 µM (inactive). For the same molecule, the GI50 [16] was 22.4 µM (inactive), the GI50 [17] was 32.4 µM (inactive) and the GI50 [18] was 3.96 µM (inactive). The GI50 [19] was 13.3 µM (inactive), the GI50 [20] was 11.4 µM (inactive) and the GI50 [21] was 68.1 µM (inactive). For the same molecule, the GI50 [22] was 18.7 µM (inactive), the GI50 [23] was 13.2 µM (inactive) and the GI50 [24] was 29.9 µM (inactive). For the same molecule, the GI50 [25] was 63.8 µM (inactive), the GI50 [26] was 15.6 µM (inactive) and the GI50 [27] was 1.8 µM (inactive). The GI50 [28] was 28.9 µM (inactive), the GI50 [29] was 95.9 µM (inactive) and the GI50 [30] was 22.5 µM (inactive). For the same molecule, the GI50 [31] was 2.44 µM (inactive), the GI50 [32] was 31.2 µM (inactive) and the GI50 [33] was 7.93 µM (inactive). The GI50 [34] was 45 µM (inactive), the GI50 [35] was 30.1 µM (inactive) and the GI50 [36] was 37.1 µM (inactive). The GI50 [37] was 12.5 µM (inactive), the GI50 [38] was 45.3 µM (inactive) and the GI50 [39] was 24.9 µM (inactive). The GI50 [40] was 10.1 µM (inactive), the GI50 [41] was 15.6 µM (inactive) and the GI50 [42] was 15.6 µM (inactive). For the same molecule, the GI50 [43] was 33 µM (inactive), the GI50 [44] was 30.8 µM (inactive) and the GI50 [45] was 17.4 µM (inactive). The GI50 [46] was 34.7 µM (inactive), the GI50 [47] was 4.61 µM (inactive) and the GI50 [48] was 26.2 µM (inactive). The GI50 [49] was 5.42 µM, the GI50 [50] was 1.16 µM (inactive) and the GI50 [51] was 25.9 µM (inactive). For the same molecule, the GI50 [52] was 11.8 µM (inactive), the GI50 [53] was > 100 µM (inactive) and the GI50 [54] was 8.07 µM (inactive). For the same molecule, the GI50 [55] was 67.1 µM (inactive).
